Data: PMC12519464, “Dual-Site Inhibition of SARS-CoV‑2 RNA-Dependent RNA Polymerase by Small Molecules Able to Block Viral Replication Identified through a Computer-Aided Drug Discovery Approach” (ACS Infectious Diseases, 2025)

target: SARS-CoV-2 nsp12/7/8 (RTC) complex (Severe acute respiratory syndrome coronavirus 2, UniProt P0DTD1); assay: biochemical; assay type: biochemical; conditions: not given

Point of comparison: `CC1(C)[C@@H](OC(=O)CCC(=O)O)CC[C@]2(C)[C@H]3C(=O)C=C4[C@@H]5C[C@@](C)(C(=O)O)CC[C@]5(C)CC[C@@]4(C)[C@]3(C)CC[C@@H]12` [Carbenoxolone, reference compound], IC50 55.8 ± 8.66 µM. Against it:
- CC(C)C1=CC(=O)[C@](C)([C@H]2[C@H](O)C[C@@]3(C)[C@@H]4CC=C5[C@@H](CC[C@@H](O[C@@H]6OC[C@@H](O)[C@H](O)[C@H]6O[C@@H]6O[C@@H](C)[C@H](O)[C@@H](O)[C@H]6O)C5(C)C)[C@]4(C)C(=O)C[C@]23C)O1 (racemic) [Picfeltarracemin Ia] — higher, > 100 µM
- C[C@H]1[C@H](C)CC[C@]2(C(=O)O)CC[C@]3(C)C(=CC[C@@H]4[C@@]5(C)C[C@@H](O)[C@H](O)[C@@](C)(CO)[C@@H]5CC[C@]43C)[C@H]12 [Asiatic Acid] — higher, > 100 µM
- C[C@H]1[C@H](C)CC[C@]2(C)CC[C@]3(C)C(=CC[C@@H]4[C@@]5(C)CC[C@@H](O)[C@](C)(C(=O)O)[C@@H]5CC[C@]43C)[C@H]12 [Beta-Boswellic acid] — 2.6-fold lower, 21.1 ± 4.45 µM
- C=C(C)[C@@H]1CC[C@]2(C=O)CC[C@]3(C)[C@H](CC[C@@H]4[C@@]5(C)CC[C@H](O)C(C)(C)[C@@H]5CC[C@]43C)[C@@H]12 [Betulinaldehyde] — higher, > 100 µM
- C[C@H]1[C@H](C)CC[C@]2(C(=O)O)CC[C@]3(C)C(=CC[C@@H]4[C@@]5(C)C[C@@H](O)[C@H](O)C(C)(C)[C@@H]5CC[C@]43C)[C@H]12 [Corosolic acid, reference compound] — higher, > 100 µM
- CC(C)(O)/C=C/C(=O)[C@](C)(O)[C@H]1[C@H](O)C[C@@]2(C)[C@@H]3CC=C4[C@@H](C[C@H](O)C(=O)C4(C)C)[C@]3(C)C(=O)C[C@]12C [Cucurbitacin D] — higher, > 100 µM

same assay, conditions: primer-extension PAGE assay, 150 nM RTC, 5% DMSO, 30 min preincubation at 37 °C; mean and SD of at least 3 independent experiments

Point of comparison: `Cc1c(-c2c(F)cc(C(N)=O)c3[nH]c4c(c23)CC[C@H](C(C)(C)O)C4)cccc1-n1c(=O)c2cccc(F)c2n(C)c1=O` [BMS-986142, reference compound], IC50 22.8 ± 3.63 µM. Against it:
- CC(C)CC(=O)Nc1cncc(-c2ccc3[nH]nc(-c4nc5c(-c6cccc(F)c6)cncc5[nH]4)c3c2)c1 [Adavivint, reference compound] — higher, > 100 µM
- O=C(Nc1nc(-c2cc(Cl)cs2)c(N2CCN(C3CCCCC3)CC2)s1)c1cnc(N2CCC(C(=O)O)CC2)c(Cl)c1 [Avatrombopag, reference compound] — within error, 27.2 ± 7.35 µM
- Nc1nc(Nc2ccc3c(c2)CC[C@@H](N2CCCC2)CC3)nn1-c1cc2c(nn1)-c1ccccc1CCC2 [Bemcentinib, reference compound] — within error, 18.5 ± 3.41 µM

same assay, conditions: read-out: IC50: compound concentration required to inhibit by 50% the SARS-CoV-2 RTC enzymatic activity

Point of comparison: `O=C(COc1ccc2c(-c3ccccc3)cc(=O)oc2c1)Nc1ccc(OCc2ccccc2)cc1` [2-(2-oxo-4-phenylchromen-7-yl)oxy-N-(4-phenylmethoxyphenyl)acetamide], IC50 80.5 ± 6.24 µM. Against it:
- CC1(C)[C@H](OC(=O)c2ccccc2)CC[C@]2(C)C3=C([C@@H](O)C[C@@H]12)[C@@]1(C)CC[C@@]2(C)CC[C@@](C)(COC(=O)c4ccccc4)C[C@H]2[C@]1(C)CC3 [3,29-Dibenzoyl Rarounitriol] — higher, > 100 µM
- CC(C)=CCCC(C(=O)O)C1CCC2(C)C3=C(CCC12C)C1(C)CCC(=O)C(C)(C)C1CC3 (centres unmarked) [3-Dehydrotrametenolic acid] — higher, > 100 µM
- C[C@H]1[C@H](C)CC[C@]2(C(=O)O)CC[C@]3(C)C(=CC[C@@H]4[C@@]5(C)CC[C@H](O)C(C)(C)[C@@H]5CC[C@]43C)[C@H]12 [3-Epiursolic Acid] — 6.9-fold lower, 11.6 ± 3.97 µM
- COc1ccc2cc(-c3cc(-c4cc(Cl)cc(Cl)c4)nn3[C@@H](C)c3ccc(C(=O)NCCC(=O)O)cc3)ccc2c1 [3-[[4-[(1S)-1-[3-(3,5-dichlorophenyl)-5-(6-methoxynaphthalen-2-yl)pyrazol-1-yl]ethyl]benzoyl]amino]propanoic acid, reference compound] — 6.8-fold lower, 11.8 ± 6.43 µM
- O=C(Nc1cccc(C(=O)O)c1)/C(=C\c1ccccc1)NC(=O)c1ccc(NC(=O)c2ccccc2)cc1 [3-[[(E)-2-[(4-benzamidobenzoyl)amino]-3-phenylprop-2-enoyl]amino]benzoic acid] — within error, 85.7 ± 0.62 µM
- Cc1cc2c(C(C)C)c(O)c(O)c(C=NCc3ccncc3)c2c(O)c1-c1c(C)cc2c(C(C)C)c(O)c(O)c(C=NCc3ccncc3)c2c1O [3-methyl-5-propan-2-yl-8-(pyridin-4-ylmethyliminomethyl)-2-[1,6,7-trihydroxy-3-methyl-5-propan-2-yl-8-(pyridin-4-ylmethyliminomethyl)naphthalen-2-yl]naphthalene-1,6,7-triol] — 5-fold lower, 16.1 ± 0.32 µM
- Cc1ccccc1N=Cc1c(O)c(O)c(C(C)C)c2cc(C)c(-c3c(C)cc4c(C(C)C)c(O)c(O)c(C=Nc5ccccc5C)c4c3O)c(O)c12 [3-methyl-8-[(2-methylphenyl)iminomethyl]-5-propan-2-yl-2-[1,6,7-trihydroxy-3-methyl-8-[(2-methylphenyl)iminomethyl]-5-propan-2-ylnaphthalen-2-yl]naphthalene-1,6,7-triol] — 2.8-fold lower, 28.4 ± 7.42 µM
- O=C(CCn1c2c(c3ccccc31)CCn1c-2nc2ccccc2c1=O)N1CCN(C2=Nc3ccccc3Oc3ccccc32)CC1 [13-{3-[4-(dibenzo[b,f][1,4]oxazepin-11-yl)piperazin-1-yl]-3-oxopropyl}-8,13-dihydroindolo[2',3':3,4]pyrido[2,1-b]quinazolin-5(7H)-one] — higher, > 100 µM
- CC(C)=CCC[C@@](C)(O)[C@H]1CC[C@]2(C)[C@@H]1[C@H](O)C[C@@H]1[C@@]3(C)CC[C@H](O[C@@H]4O[C@H](CO)[C@@H](O)[C@H](O)[C@H]4O)C(C)(C)[C@@H]3CC[C@]12C [20(R)-Ginsenoside Rh2] — higher, > 100 µM
- CC(C)(O)CC[C@H]1OC(C)(C)O[C@]1(C)[C@H]1CC[C@@]2(O)C3=CC(=O)[C@@H]4C[C@@H](O)[C@@H](O)C[C@]4(C)[C@H]3CC[C@]12C [20-Hydroxyecdysone 20,22-acetonide] — higher, > 100 µM
- C=CCOc1cccc(C(=O)[C@@H]2[C@@H]3CCCN3[C@]3(C(=O)Nc4c(C)cc(C)cc43)[C@@]23C(=O)Nc2ccccc23)c1 [(1'S,3R,3'S,7a'S)-5'',7''-dimethyl-1'-{[3-(prop-2-en-1-yloxy)phenyl]carbonyl}-5',6',7',7a'-tetrahydro-1'H-dispiro[indole-3,2'-pyrrolizine-3',3''-indole]-2,2''(1H,1''H)-dione] — higher, > 100 µM
- C/C(Nc1ccc(Oc2ccc(N/C(C)=C3\C(=O)C[C@@H]4[C@H]3C4(C)C)cc2)cc1)=C1/C(=O)C[C@@H]2[C@H]1C2(C)C [(1S,2Z,5R)-2-[1-[4-[4-[[(1Z)-1-[(1S,5R)-6,6-dimethyl-3-oxo-2-bicyclo[3.1.0]hexanylidene]ethyl]amino]phenoxy]anilino]ethylidene]-6,6-dimethylbicyclo[3.1.0]hexan-3-one] — higher, > 100 µM
- Cc1oc2c(C)c3oc(=O)c(CC(=O)N4C[C@H]5C[C@@H](C4)c4cccc(=O)n4C5)c(C)c3cc2c1-c1ccccc1 [(1S,9R)-11-[2-(2,5,9-trimethyl-7-oxo-3-phenylfuro[3,2-g]chromen-6-yl)acetyl]-7,11-diazatricyclo[7.3.1.02,7]trideca-2,4-dien-6-one] — 2.8-fold lower, 28.3 ± 6.24 µM
- CC(C)[C@@H](NC(=O)C1(c2ccccc2)CCN(C(=O)OC(C)(C)C)CC1)C(=O)N[C@@H](C(=O)O)c1ccccc1 [(2R)-[(N-{[1-(tert-butoxycarbonyl)-4-phenylpiperidin-4-yl]carbonyl}-D-valyl)amino](phenyl)ethanoic acid] — higher, > 100 µM
- C[C@@H]1CC[C@@]2(OC1)O[C@H]1C[C@H]3[C@@H]4CC=C5C[C@@H](O[C@@H]6O[C@H](CO)[C@@H](O)[C@H](O)[C@H]6O[C@@H]6O[C@@H](C)[C@H](O)[C@@H](O)[C@H]6O)CC[C@]5(C)[C@H]4CC[C@]3(C)[C@@]1(O)[C@@H]2C [(2S,3R,4R,5R,6S)-2-[(2R,3R,4S,5S,6R)-4,5-dihydroxy-6-(hydroxymethyl)-2-[(1R,2S,4S,5'R,6R,7S,8S,9S,12S,13R,16S)-8-hydroxy-5',7,9,13-tetramethylspiro[5-oxapentacyclo[10.8.0.02,9.04,8.013,18]icos-18-ene-6,2'-oxane]-16-yl]oxyoxan-3-yl]oxy-6-methyloxane-3,4,5-triol] — higher, > 100 µM
- CO[C@H]1/C=C/O[C@@]2(C)Oc3c(C)c(O)c4c(c3C2=O)C(=O)C(N2CCCC2)=C(NC(=O)/C(C)=C\C=C\[C@H](C)[C@H](O)[C@@H](C)[C@H](O)[C@H](C)[C@H](O)[C@@H]1C)C4=O [(7S,9E,11S,12S,13S,14S,15S,16R,17S,18S,19E,21Z)-2,13,15,17-tetrahydroxy-11-methoxy-3,7,12,14,16,18,22-heptamethyl-26-pyrrolidin-1-yl-8,30-dioxa-24-azatetracyclo[23.3.1.14,7.05,28]triaconta-1(28),2,4,9,19,21,25-heptaene-6,23,27,29-tetrone] — 1.7-fold lower, 46.1 ± 15.6 µM
- CC(C)=CCC[C@@](C)(O)[C@H]1CC[C@]2(C)[C@@H]1[C@H](O)C[C@@H]1[C@@]3(C)CC[C@H](O)C(C)(C)[C@@H]3[C@@H](O[C@@H]3O[C@H](CO)[C@@H](O)[C@H](O)[C@H]3O)C[C@]12C [(20R)-Ginsenoside Rh1] — higher, > 100 µM
- CC(C)=CCC[C@@](C)(O)[C@H]1CC[C@]2(C)[C@@H]1[C@H](O)C[C@@H]1[C@@]3(C)CC[C@H](O)C(C)(C)[C@@H]3CC[C@]12C [(20R)-Protopanaxadiol] — higher, > 100 µM
- CC(C)=CCC[C@](C)(O)[C@H]1CC[C@]2(C)[C@@H]1[C@H](O)C[C@@H]1[C@@]3(C)CC[C@H](O)C(C)(C)[C@@H]3CC[C@]12C [(20S)-Protopanaxadiol] — higher, > 100 µM
- CC(=O)O[C@@H](C[C@@H](C)C1=C2C[C@H](O)[C@H]3[C@@]4(C)CCC(=O)C(C)(C)[C@@H]4CC[C@]3(C)[C@@]2(C)CC1=O)[C@H]1OC1(C)C [Alisol C monoacetate] — higher, > 100 µM
- CC1(C)CC[C@]2(C)CC[C@]3(C)C(=CC[C@@H]4[C@@]5(C)CC[C@@H](O)[C@](C)(C(=O)O)[C@@H]5CC[C@]43C)[C@@H]2C1 [Alpha-Boswellic acid] — within error, 93.5 ± 9.14 µM
- CC[C@H](/C=C/[C@@H](C)[C@H]1CC[C@H]2C3=CC[C@H]4C[C@@H](O[C@@H]5O[C@H](CO)[C@@H](O)[C@H](O)[C@H]5O)CC[C@]4(C)[C@H]3CC[C@]12C)C(C)C [Alpha-Spinasterol glucoside] — higher, > 100 µM
- Cc1ccc(NC(=O)[C@H]2CCCN(C(=O)c3c(C)cccc3F)[C@H]2c2ccc(NC3CCCC3)cc2)cc1C(F)(F)F [Avacopan, reference compound] — higher, > 100 µM
